Results reported in US9079866B2, “Flap modulators” (JANSSEN PHARMACEUTICA NV, priority 2013, dated 2015).
Counter-ions that a name gives are not always drawn. Like-named read-outs stand apart in the source and are kept apart here.

What was measured:
human FLAP = human FLAP (Homo sapiens (Human), UniProt P20292); experiment: FLAP binding assay (HTRF format)
Outline: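 Samples were run in duplicate on each of two assay plates, the results were averaged, and the signal was expressed as an HTRF ratio.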

[1] = tested on: leukotriene pathway in human whole blood (LTB4 levels); experiment: Human whole blood assay (A23187-stimulated LTB4); format: cell-based; conditions: Homo sapiens, human whole blood diluted 1:1 in RPMI, A23187-stimulated LTB4; read-out: LTB4 IC50 1:1
Outline: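 Single-replicate data from at least one healthy donor: compound pre-incubated 15 min at 37° Celsius in 1:1 RPMI-diluted heparinised blood, followed by 30 min calcium ionophore A23187 (7 μg/mL) challenge at 37° Celsius. LTB4 in plasma quantified by kit; IC50 via 4-parameter equation.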

[2] = human FLAP wild type, HTRF format, average of two plates, duplicates
[3] = read-out: FLAP Binding wild type HTRF Ki

Chain of human FLAP (P20292 whole entry): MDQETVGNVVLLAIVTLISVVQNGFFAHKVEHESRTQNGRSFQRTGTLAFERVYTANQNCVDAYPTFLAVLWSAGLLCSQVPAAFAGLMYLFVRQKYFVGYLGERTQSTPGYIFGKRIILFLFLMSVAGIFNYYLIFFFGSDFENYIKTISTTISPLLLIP

Compound	Ki (human FLAP; [2]) [nM]	IC50 [1] [nM]	Ki (human FLAP; [3]) [nM]
CCCCCCS(=O)(=O)c1ccccc1-c1ccc(-c2cnc(N)cn2)c(F)c1 [Example 198, 5-[3-Fluoro-2′-(hexylsulfonyl)biphenyl-4-yl]pyrazin-2-amine]	83	375	
CC(C)S(=O)(=O)c1ccccc1-c1ccc(-c2cnc(N)cn2)c(F)c1 [Example 199, 5-{3-Fluoro-2′-[(1-methylethyl)sulfonyl]biphenyl-4-yl}pyrazin-2-amine]	39	250	
NC(=O)CSc1ccccc1-c1ccc(-c2cnc(N)cn2)c(F)c1 [Example 200, 2-{[4′-(5-Aminopyrazin-2-yl)-3′-fluorobiphenyl-2-yl]sulfanyl}acetamide]	35	176	
CCN(CC)C(=O)CSc1ccccc1-c1ccc(-c2cnc(N)cn2)c(F)c1 [Example 201, 2-{[4′-(5-Aminopyrazin-2-yl)-3′-fluorobiphenyl-2-yl]sulfanyl}-N,N-diethylacetamide]	21	358	
Nc1cnc(-c2ccc(-c3ccccc3SCC(=O)N3CCOCC3)cc2F)cn1 [Example 202, 5-{3-Fluoro-2′-[(2-morpholin-4-yl-2-oxoethyl)sulfanyl]biphenyl-4-yl}pyrazin-2-amine]	72	172	
Nc1cnc(-c2ccc(-c3ccccc3SCCNC(=O)c3ccccc3)cc2F)cn1 [Example 204, N-(2-{[4′-(5-Aminopyrazin-2-yl)-3′-fluorobiphenyl-2-yl]sulfanyl}ethyl)benzamide]	4	128	
CS(=O)(=O)c1ccc(CSc2ccccc2-c2ccc(-c3cnc(N)cn3)c(F)c2)cc1 [Example 205, 5-(3-Fluoro-2′-{[4-(methylsulfonyl)benzyl]sulfanyl}biphenyl-4-yl)pyrazin-2-amine]	8	66	
Nc1cnc(-c2ccc(-c3ccc(C(F)(F)F)cc3S(N)(=O)=O)cc2F)cn1 [Example 206, 4′-(5-Aminopyrazin-2-yl)-3′-fluoro-4-(trifluoromethyl)biphenyl-2-sulfonamide]	2	43	
CS(=O)(=O)c1cc(C(F)(F)F)ccc1-c1ccc(-c2cnc(N)cn2)c(F)c1 [Example 207, 5-[3-Fluoro-2′-(methylsulfonyl)-4′-(trifluoromethyl)biphenyl-4-yl]pyrazin-2-amine]	17	205	
Nc1cnc(-c2ccc(-c3ccc(C(F)(F)F)cc3S(=O)(=O)N3CCNC(=O)C3)cc2F)cn1 [Example 209, 4-{[4′-(5-Aminopyrazin-2-yl)-3′-fluoro-4-(trifluoromethyl)biphenyl-2-yl]sulfonyl}piperazin-2-one]	1	34	
CCNS(=O)(=O)c1cc(C(F)(F)F)ccc1-c1ccc(-c2cnc(N)cn2)c(F)c1 [Example 211, 4′-(5-Aminopyrazin-2-yl)-N-ethyl-3′-fluoro-4-(trifluoromethyl)biphenyl-2-sulfonamide]	1	6	
CN1CCN(S(=O)(=O)c2cc(C(F)(F)F)ccc2-c2ccc(-c3cnc(N)cn3)c(F)c2)CC1 [Example 212, 5-{3-Fluoro-2′-[(4-methylpiperazin-1-yl)sulfonyl]-4′-(trifluoromethyl)biphenyl-4-yl}pyrazin-2-amine]	1	5	
Nc1cnc(-c2ccc(-c3ccccc3Sc3ncccn3)cc2F)cn1 [Example 213, 5-[3-Fluoro-2′-(pyrimidin-2-ylsulfanyl)biphenyl-4-yl]pyrazin-2-amine hydrochloride]	2	25	
Nc1ncc(-c2ccc(-c3ccccc3Sc3ccncn3)cc2F)cn1 [Example 214, 5-[3-Fluoro-2′-(pyrimidin-4-ylsulfanyl)biphenyl-4-yl]pyrimidin-2-amine formate salt]	12	138	
Nc1cnc(-c2ccc(-c3ccccc3Sc3cc(N)ncn3)cc2F)cn1 [Example 215, 6-{[4′-(5-Aminopyrazin-2-yl)-3′-fluorobiphenyl-2-yl]sulfanyl}pyrimidin-4-amine hydrochloride]	2	12	
Nc1cnc(-c2ccc(-c3ccccc3Sc3nccc(N)n3)cc2F)cn1 [Example 216, 2-{[4′-(5-Aminopyrazin-2-yl)-3′-fluorobiphenyl-2-yl]sulfanyl}pyrimidin-4-amine hydrochloride]		16	2
Nc1cnc(-c2ccc(-c3ccccc3Sc3ncncc3N)cc2F)cn1 [Example 217, 4-{[4′-(5-Aminopyrazin-2-yl)-3′-fluorobiphenyl-2-yl]sulfanyl}pyrimidin-5-amine hydrochloride]	1	9	
Nc1cnc(-c2ccc(-c3ccccc3Sc3cnccn3)cc2F)cn1 [Example 218, 5-[3-Fluoro-2′-(pyrazin-2-ylsulfanyl)biphenyl-4-yl]pyrazin-2-amine hydrochloride]		29	3

Compound	Ki (human FLAP; [2]) [nM]	IC50 [1] [nM]	Ki (human FLAP; [3]) [nM]
Nc1cnc(Sc2ccccc2-c2ccc(-c3cnc(N)cn3)c(F)c2)nc1 [Example 219, 2-{[4′-(5-Aminopyrazin-2-yl)-3′-fluorobiphenyl-2-yl]sulfanyl}pyrimidin-5-amine hydrochloride]	5	31	
CNS(=O)(=O)Cc1ccccc1-c1ccc(-c2cnc(N)cn2)c(F)c1 [Example 220, 1-[4′-(5-Aminopyrazin-2-yl)-3′-fluorobiphenyl-2-yl]-N-methylmethanesulfonamide formic acid salt]	205	219	
Nc1cnc(-c2ccc(-c3ccccc3CS(=O)(=O)NCCO)cc2F)cn1 [Example 221, 1-[4′-(5-Aminopyrazin-2-yl)-3′-fluorobiphenyl-2-yl]-N-(2-hydroxyethyl)methanesulfonamide formic acid salt]	300	854	
Nc1cnc(-c2ccc(-c3ccccc3CS(=O)(=O)N3CC(O)C3)cc2F)cn1 [Example 222, 1-({[4′-(5-Aminopyrazin-2-yl)-3′-fluorobiphenyl-2-yl]methyl}sulfonyl)azetidin-3-ol formic acid salt]	118	638	
C[C@@H](CO)NS(=O)(=O)Cc1ccccc1-c1ccc(-c2cnc(N)cn2)c(F)c1 [Example 224, (S)-1-(4′-(5-Aminopyrazin-2-yl)-3′-fluoro-[1,1′-biphenyl]-2-yl)-N-(1-hydroxypropan-2-yl)-methanesulfonamide]	293	516	
Nc1cnc(-c2ccc(-c3ccccc3CS(=O)(=O)N[C@H]3CC[C@H](O)CC3)cc2F)cn1 [Example 226, 1-[4′-(5-Aminopyrazin-2-yl)-3′-fluorobiphenyl-2-yl]-N-(trans-4-hydroxycyclohexyl)-methanesulfonamide formic acid salt]		329	211
Nc1cnc(-c2ccc(-c3ccccc3CS(N)(=O)=O)cc2F)cn1 [Example 230, 1-[4′-(5-Aminopyrazin-2-yl)-3′-fluorobiphenyl-2-yl]methanesulfonamide hydrochloride]	1200	5000	
CCNS(=O)(=O)Cc1ccccc1-c1ccc(-c2cnc(N)cn2)c(F)c1 [Example 231, 1-[4′-(5-Aminopyrazin-2-yl)-3′-fluorobiphenyl-2-yl]-N-ethylmethanesulfonamide formate salt]		564	135
CCSCc1ccccc1-c1ccc(-c2cnc(N)cn2)c(F)c1 [Example 234, 5-{2′-[(Ethylsulfanyl)methyl]-3-fluorobiphenyl-4-yl}pyrazin-2-amine formic acid salt]	25	238	
CSCc1ccccc1-c1ccc(-c2cnc(N)cn2)c(F)c1 [Example 235, 5-{3-Fluoro-2′-[(methylsulfanyl)methyl]biphenyl-4-yl}pyrazin-2-amine hydrochloride]	36	285	
CC(C)SCc1ccccc1-c1ccc(-c2cnc(N)cn2)c(F)c1 [Example 236, 5-(3-Fluoro-2′-{[(1-methylethyl)sulfanyl]methyl}biphenyl-4-yl)pyrazin-2-amine hydrochloride]	57	443	
Nc1cnc(-c2ccc(-c3ccccc3CSc3nccc(N)n3)cc2F)cn1 [Example 237, 2-(((4′-(5-Aminopyrazin-2-yl)-3′-fluoro-[1,1′-biphenyl]-2-yl)methyl)thio)pyrimidin-4-amine hydrochloride]	8	134	
Nc1cnc(-c2ccc(-c3ccccc3CSc3cc(N)ncn3)cc2F)cn1 [Example 238, 6-(((4′-(5-Aminopyrazin-2-yl)-3′-fluoro-[1,1′-biphenyl]-2-yl)methyl)thio)pyrimidin-4-amine hydrochloride]	5	38	
Nc1cnc(-c2ccc(-c3ccccc3CSc3ccc(N)nn3)cc2F)cn1 [Example 240, 6-(((4′-(5-Aminopyrazin-2-yl)-3′-fluoro-[1,1′-biphenyl]-2-yl)methyl)thio)pyridazin-3-amine hydrochloride]	2	21	
Nc1cnc(-c2ccc(-c3ccccc3S(=O)(=O)C3CCS(=O)(=O)CC3)cc2F)cn1 [Example 241, 5-{2′-[(1,1-Dioxidotetrahydro-2H-thiopyran-4-yl)sulfonyl]-3-fluorobiphenyl-4-yl}pyrazin-2-amine]	15	61	
Nc1cnc(-c2ccc(-c3ccccc3Sc3ccnc(N)n3)cc2F)cn1 [Example 242, 4-{[4′-(5-Aminopyrazin-2-yl)-3′-fluorobiphenyl-2-yl]sulfanyl}pyrimidin-2-amine hydrochloride]	1	4	
Nc1cnc(-c2ccc(-c3ccccc3CSc3ccncn3)cc2F)cn1 [Example 243, 5-(3-Fluoro-2′-((pyrimidin-4-ylthio)methyl)-[1,1′-biphenyl]-4-yl)pyrazin-2-amine hydrochloride]	3	120	
